Assay results from US20220372585A1, “Sensors for Aromatic Compounds and Methods of Making and Using Same” (Washington University, priority 2021, published 2022).

How the values were obtained:
[1] = system: wild-type TynA with M83Y FeaR; assay: PtynA-GFP reporter, wild-type TynA with M83Y FeaR (pCX068); format: cell-based, E. coli MG1655; conditions: pCX008, pCX068, FIG. 6D, 24 h
Protocol: (§1) Flow cytometry was performed as previously described. […] Cytometry data was gated by forward and side scatter.

[2] = Sauerkraut, safe limit; cited from earlier work
[3] = system: wild-type TynA with L108T FeaR; format: cell-based, E. coli MG1655; conditions: L108T FeaR; 24 h; FIG. 28B
Protocol: as §1

[4] = system: wild-type TynA with M83Q FeaR; format: cell-based, E. coli MG1655; conditions: M83Q FeaR; 24 h; FIG. 28A
Protocol: as §1

[5] = system: wild-type TynA with W110C FeaR; format: cell-based, E. coli MG1655; conditions: W110C FeaR; 24 h; FIG. 28D
Protocol: as §1

[6] = system: wild-type TynA with W110S FeaR; format: cell-based, E. coli MG1655; conditions: W110S FeaR; 24 h; FIG. 28C
Protocol: as §1

[7] = system: sensor systems containing FeaR-KA; assay: GFP fluorescence from PtynA in part-swapped sensor systems containing FeaR-KA; format: cell-based, Klebsiella aerogenes; conditions: 0.5 mM, 24 h, FIG. 31
Excerpt: FIG. 31. […] PtynA from MG or KP/KA was regulated by TynA from MG or KP and FeaR from MG or KA. […] Values and error bars are the average and standard deviation of biological triplicate, respectively.
Tryptamine specific biosensors were first designed by genetic parts swapping. Three types of tynA and feaR genes from E. coli K-12 MG1655 (MG), Klebsiella aerogenes (KA), and Klebsiella pneumoniae (KP), and two types of PtynA sequences were chosen and tested in 18 different combinations (see e.g., FIG. 30). PtynA-KP/KA was constructed by replacing the FeaR binding sites of PtynA-MG with those from Klebsiella species.
Moreover, a Tryptamine specific variant I109N was discovered using a sensor system with PtynA-MG, TynA-KP and FeaR-KA as the wild type (VVT) for further directed evolution (see e.g., FIG. 32). […] Transfer curves for the tryptamine-specific FeaR-KA I109N sensor after 5 or 24 hours of induction further illustrate the specificity of the sensor for tryptamine (see e.g., FIG. 33A-FIG. 33B).

WT TrpR = molecular target: T1, WT TrpR (Escherichia coli, UniProt P0A881); assay: WT TrpR system, repression of GFP expression; format: cell-based, E. coli
T1 construct: trpR (WT); expressed in transfected cells; host or cells: E. coli Nissle 1917 (EcN), genomic trpR knocked out; plasmid pMBA035 (P17-trpR)
Excerpt: Among the various aspects of the present disclosure is the provision of systems and methods for detecting aromatic compounds. An aspect of the present disclosure provides for a method of protein engineering (e.g., a regulator protein) comprising: mutagenizing specific amino acids in and around a ligand-binding site of a protein, wherein the mutagenizing enables changes in ligand-protein binding specificity while maintaining protein-DNA interaction and thus downstream gene expression control; and/or linking ligand-protein binding to output response. An aspect of the present disclosure provides for an engineered molecular sensor. […] In some embodiments, the engineered regulator protein or the ligand-protein binding site or a sequence encoding the engineered regulator protein or the ligand-protein binding site of the engineered regulator protein is at least about 80% identical to a WT regulator protein or a WT regulator ligand-protein binding site; or a sequence encoding the engineered regulator protein or ligand binding site thereof is at least about 80% identical to a sequence encoding the WT regulator protein or the WT regulator ligand-protein binding site; or functional fragment thereof, the engineered regulator protein having ligand binding activity. In some embodiments, the engineered molecular sensor is optionally genomically integrated into a microorganism, optionally selected from a probiotic or is a purified cell-free sensor. In some embodiments, the engineered regulator protein or enzyme is an engineered TrpR, TyrR, TynA, or FeaR protein. […] In some embodiments, the engineered regulator protein is an engineered TrpR and is a tryptophan (Trp)-, 5-hydroxytryptophan (5-HTP)-, or tryptamine (Trpta)-specific sensor. In some embodiments, the engineered regulator protein or enzyme is an engineered TrpR, TyrR, TynA, or FeaR, and/or wherein the engineered TrpR, TyrR, TynA, or FeaR comprises at least one mutation to a ligand-protein binding site having specific amino acid binding activity. […]

NCCc1ccccc1 [Phenylethylamine, phenylethylamine]
Fmax [1]: 1004
Fmin [1]: 5.8
n (Hill coefficient) [1]: 2.1
Concentration [2]: 0.03 mM

NCCc1c[nH]c2ccccc12 [Tryptamine, tryptamine]
response [3]: lack of response
response [4]: lack of response
response [5]: lack of response
response [6]: lack of response
fluorescence intensity [7]: significant enhancement of fluorescence intensity
fold repression of GFP expression (WT TrpR): 7 fold
